Source: publication PMC6128854 (Scientific Reports, 2018)
Positions of bridges follow the written chain, without caps; N, C: chain ends. Non-standard residues stand in square brackets, D forms with d. Residues, ends and D or L forms follow the SMILES beside them. Hyp = O=C(O)[C@@H]1C[C@@H](O)CN1

Experiments:
[1] = target: N-type calcium channel currents (Cav2.2) in rDRG neurons (Rattus norvegicus, UniProt Q02294); experiment: cell-based; conditions: SEM
[2] = target: endogenous human Cav3.1 (Homo sapiens, UniProt O43497)
[3] = target: endogenous human Cav1.3 (Homo sapiens, UniProt Q01668)
[4] = system: side effects in rats; conditions: rat, in vivo

Sequence of N-type calcium channel currents (Cav2.2) in rDRG neurons (Q02294 whole entry, looked up): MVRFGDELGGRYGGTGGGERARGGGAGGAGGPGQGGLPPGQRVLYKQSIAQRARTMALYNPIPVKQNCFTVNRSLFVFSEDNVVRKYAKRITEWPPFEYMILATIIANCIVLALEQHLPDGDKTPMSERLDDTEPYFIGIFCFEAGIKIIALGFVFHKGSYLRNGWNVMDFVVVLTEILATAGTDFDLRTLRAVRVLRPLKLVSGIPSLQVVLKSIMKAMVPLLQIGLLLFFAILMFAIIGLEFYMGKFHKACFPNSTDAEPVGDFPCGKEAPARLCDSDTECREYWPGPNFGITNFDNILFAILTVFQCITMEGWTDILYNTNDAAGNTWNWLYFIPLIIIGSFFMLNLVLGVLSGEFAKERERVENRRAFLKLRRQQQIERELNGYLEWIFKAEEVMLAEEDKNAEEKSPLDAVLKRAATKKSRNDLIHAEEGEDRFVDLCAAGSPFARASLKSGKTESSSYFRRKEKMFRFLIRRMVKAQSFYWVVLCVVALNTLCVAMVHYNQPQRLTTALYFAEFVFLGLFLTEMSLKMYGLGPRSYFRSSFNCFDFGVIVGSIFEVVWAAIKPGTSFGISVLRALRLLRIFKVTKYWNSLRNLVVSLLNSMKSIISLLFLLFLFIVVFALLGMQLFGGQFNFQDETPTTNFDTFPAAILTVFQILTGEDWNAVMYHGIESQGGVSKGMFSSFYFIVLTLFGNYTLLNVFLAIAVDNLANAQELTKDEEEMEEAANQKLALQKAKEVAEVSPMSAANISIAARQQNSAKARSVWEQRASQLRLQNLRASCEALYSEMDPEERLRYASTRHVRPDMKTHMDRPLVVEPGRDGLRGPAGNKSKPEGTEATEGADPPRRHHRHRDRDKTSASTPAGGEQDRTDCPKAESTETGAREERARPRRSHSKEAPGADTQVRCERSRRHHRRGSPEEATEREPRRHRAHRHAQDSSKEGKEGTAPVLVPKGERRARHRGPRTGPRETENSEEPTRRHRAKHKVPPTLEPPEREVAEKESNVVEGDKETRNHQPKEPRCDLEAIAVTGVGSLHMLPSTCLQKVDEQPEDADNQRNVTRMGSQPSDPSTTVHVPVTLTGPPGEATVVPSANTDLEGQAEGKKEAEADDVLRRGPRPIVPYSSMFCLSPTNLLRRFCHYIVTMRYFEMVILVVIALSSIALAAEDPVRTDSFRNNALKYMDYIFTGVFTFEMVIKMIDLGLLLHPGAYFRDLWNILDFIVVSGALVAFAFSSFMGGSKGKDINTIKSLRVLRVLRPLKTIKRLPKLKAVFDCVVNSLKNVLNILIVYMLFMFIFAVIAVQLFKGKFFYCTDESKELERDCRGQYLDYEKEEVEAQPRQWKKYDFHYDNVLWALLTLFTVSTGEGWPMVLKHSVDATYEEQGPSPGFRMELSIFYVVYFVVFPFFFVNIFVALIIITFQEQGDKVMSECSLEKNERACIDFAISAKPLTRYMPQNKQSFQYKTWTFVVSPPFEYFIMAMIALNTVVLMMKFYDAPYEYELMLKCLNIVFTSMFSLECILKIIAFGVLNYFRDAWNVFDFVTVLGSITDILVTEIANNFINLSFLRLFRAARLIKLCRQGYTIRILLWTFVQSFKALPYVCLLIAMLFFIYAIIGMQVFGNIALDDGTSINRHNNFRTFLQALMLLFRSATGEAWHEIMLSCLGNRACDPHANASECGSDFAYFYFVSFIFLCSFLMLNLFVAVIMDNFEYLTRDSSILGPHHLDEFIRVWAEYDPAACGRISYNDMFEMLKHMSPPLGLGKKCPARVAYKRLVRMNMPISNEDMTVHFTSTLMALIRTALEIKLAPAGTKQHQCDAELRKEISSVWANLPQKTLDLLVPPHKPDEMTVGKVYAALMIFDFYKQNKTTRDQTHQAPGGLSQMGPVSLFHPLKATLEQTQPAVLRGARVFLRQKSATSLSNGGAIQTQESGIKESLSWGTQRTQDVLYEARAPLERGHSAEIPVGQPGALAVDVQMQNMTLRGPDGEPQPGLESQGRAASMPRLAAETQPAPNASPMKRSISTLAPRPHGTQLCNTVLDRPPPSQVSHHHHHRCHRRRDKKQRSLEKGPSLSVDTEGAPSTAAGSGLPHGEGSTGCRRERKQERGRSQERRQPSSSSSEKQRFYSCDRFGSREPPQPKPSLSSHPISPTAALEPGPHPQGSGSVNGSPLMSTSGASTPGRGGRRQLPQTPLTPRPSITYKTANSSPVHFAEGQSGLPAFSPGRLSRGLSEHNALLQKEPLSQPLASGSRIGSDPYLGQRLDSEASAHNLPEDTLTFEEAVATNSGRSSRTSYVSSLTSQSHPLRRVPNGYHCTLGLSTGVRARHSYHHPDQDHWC
Sequence of endogenous human Cav3.1 (O43497 whole entry): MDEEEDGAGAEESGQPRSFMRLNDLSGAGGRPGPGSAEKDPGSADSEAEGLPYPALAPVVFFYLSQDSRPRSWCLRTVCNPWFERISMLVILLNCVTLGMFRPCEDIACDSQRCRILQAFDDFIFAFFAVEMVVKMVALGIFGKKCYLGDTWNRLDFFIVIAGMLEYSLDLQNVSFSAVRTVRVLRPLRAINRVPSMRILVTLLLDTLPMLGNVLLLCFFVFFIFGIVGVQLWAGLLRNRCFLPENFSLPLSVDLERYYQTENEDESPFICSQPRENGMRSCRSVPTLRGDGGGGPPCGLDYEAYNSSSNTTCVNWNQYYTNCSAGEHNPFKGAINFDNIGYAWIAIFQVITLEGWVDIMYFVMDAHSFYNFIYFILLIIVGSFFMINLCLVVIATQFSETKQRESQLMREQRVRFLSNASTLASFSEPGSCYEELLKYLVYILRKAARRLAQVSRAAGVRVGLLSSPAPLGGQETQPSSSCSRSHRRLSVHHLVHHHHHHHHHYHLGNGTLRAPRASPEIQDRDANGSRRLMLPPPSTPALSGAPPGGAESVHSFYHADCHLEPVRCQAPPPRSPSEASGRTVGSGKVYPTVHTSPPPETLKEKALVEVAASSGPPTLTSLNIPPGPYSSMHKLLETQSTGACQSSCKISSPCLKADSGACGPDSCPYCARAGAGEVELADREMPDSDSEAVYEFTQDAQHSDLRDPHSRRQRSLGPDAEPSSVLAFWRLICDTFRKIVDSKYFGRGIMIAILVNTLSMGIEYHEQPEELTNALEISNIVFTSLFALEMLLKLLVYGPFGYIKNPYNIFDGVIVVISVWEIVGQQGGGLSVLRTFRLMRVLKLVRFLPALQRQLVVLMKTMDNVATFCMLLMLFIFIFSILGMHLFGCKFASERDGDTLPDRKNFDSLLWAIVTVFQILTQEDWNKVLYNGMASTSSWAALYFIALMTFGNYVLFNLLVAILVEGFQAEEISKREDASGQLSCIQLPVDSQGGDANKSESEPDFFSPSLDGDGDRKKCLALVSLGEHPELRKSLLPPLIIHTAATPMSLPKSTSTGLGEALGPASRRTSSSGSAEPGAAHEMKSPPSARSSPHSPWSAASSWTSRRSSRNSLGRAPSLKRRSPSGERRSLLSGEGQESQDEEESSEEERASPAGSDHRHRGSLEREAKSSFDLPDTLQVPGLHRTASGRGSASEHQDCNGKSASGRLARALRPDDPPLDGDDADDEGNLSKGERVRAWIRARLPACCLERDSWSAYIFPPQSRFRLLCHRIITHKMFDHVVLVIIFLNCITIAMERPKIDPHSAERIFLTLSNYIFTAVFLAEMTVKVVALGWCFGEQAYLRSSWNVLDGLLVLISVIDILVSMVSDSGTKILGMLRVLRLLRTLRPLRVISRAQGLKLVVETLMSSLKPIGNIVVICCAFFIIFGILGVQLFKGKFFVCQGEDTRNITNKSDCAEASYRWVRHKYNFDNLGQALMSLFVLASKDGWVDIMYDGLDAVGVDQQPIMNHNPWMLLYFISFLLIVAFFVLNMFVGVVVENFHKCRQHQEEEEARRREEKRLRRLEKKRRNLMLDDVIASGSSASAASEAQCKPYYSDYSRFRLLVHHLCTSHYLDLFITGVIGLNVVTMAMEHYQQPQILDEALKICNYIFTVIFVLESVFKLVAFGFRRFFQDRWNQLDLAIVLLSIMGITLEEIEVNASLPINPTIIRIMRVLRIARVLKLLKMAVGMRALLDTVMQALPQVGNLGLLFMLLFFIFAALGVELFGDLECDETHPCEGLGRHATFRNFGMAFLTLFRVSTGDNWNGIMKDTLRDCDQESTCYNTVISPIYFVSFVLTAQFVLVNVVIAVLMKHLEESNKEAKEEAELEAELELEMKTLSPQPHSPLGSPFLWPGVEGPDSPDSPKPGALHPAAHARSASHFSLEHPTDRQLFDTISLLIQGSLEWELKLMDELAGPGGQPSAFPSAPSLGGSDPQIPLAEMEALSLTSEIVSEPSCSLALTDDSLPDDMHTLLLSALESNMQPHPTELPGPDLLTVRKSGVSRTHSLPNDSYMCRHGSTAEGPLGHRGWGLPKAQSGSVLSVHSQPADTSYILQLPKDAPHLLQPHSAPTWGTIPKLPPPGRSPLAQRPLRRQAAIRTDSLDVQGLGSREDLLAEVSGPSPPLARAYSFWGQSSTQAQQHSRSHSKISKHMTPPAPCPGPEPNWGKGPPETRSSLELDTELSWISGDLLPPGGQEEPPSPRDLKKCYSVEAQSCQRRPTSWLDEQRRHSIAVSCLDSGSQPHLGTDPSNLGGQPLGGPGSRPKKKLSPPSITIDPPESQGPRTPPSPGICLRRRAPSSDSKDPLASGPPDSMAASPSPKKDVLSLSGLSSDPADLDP

SMILES | IC50 [1] [nM] | activity at endogenous human Cav3.1 [2] | activity at endogenous human Cav1.3 [3] | duration of side effects [4] | therapeutic index (ratio of ED50 visual side effect score to ED50 mechanical PWT) [4] | ED50 for visual side effect score ([4]; SEM) [nmol]
CC[C@H](C)[C@@H]1NC(=O)[C@@H]2CSSC[C@@H]3NC(=O)[C@H](CCCCN)NC(=O)[C@H](CO)NC(=O)CNC(=O)[C@@H]4C[C@@H](O)CN4C(=O)[C@@H]4CCCN4C(=O)[C@H](CCCCN)NC(=O)[C@@H](N)CSSC[C@H](NC(=O)[C@H](CSSC[C@@H](C(=O)N[C@@H](CCCNC(=N)N)C(=O)N[C@@H](CCCCN)C(=O)N[C@@H](Cc4ccc(O)cc4)C(=O)N[C@@H](Cc4ccc(O)cc4)C(=O)O)NC(=O)[C@H](CCCNC(=N)N)NC(=O)[C@H](CCCCN)NC(=O)[C@H]([C@@H](C)O)NC(=O)[C@H](Cc4ccc(O)cc4)NC(=O)[C@H](CO)NC1=O)NC(=O)[C@H](CC(=O)O)NC(=O)[C@H](CCCNC(=N)N)NC(=O)[C@H](CCSC)NC(=O)[C@H](CO)NC(=O)[C@@H]1C[C@@H](O)CN1C(=O)[C@H](CO)NC3=O)C(=O)N[C@@H]([C@@H](C)O)C(=O)N[C@@H]([C@@H](C)O)C(=O)N2 [MoVIB] (H-CKP[Hyp]GSKCS[Hyp]SMRDCCTTCISYTKRCRKYY-OH; disulfide 1-16, 8-19, 15-26) | 180 ± 30 | inactive | inactive | up to 4 h | 2.2 | 0.09 ± 0.05
CC[C@H](C)[C@@H]1NC(=O)[C@@H]2CSSC[C@@H]3NC(=O)[C@H](CCCCN)NC(=O)[C@H](CO)NC(=O)CNC(=O)[C@@H]4C[C@@H](O)CN4C(=O)[C@@H]4CCCN4C(=O)[C@H](CCCCN)NC(=O)[C@@H](N)CSSC[C@H](NC(=O)[C@H](CSSC[C@@H](C(=O)N[C@@H](CCCNC(=N)N)C(=O)N[C@@H](CCCCN)C(=O)N[C@@H](Cc4ccc(O)cc4)C(=O)N[C@@H](Cc4ccc(O)cc4)C(=O)N[C@@H](CC(N)=O)C(=O)O)NC(=O)[C@H](CCCNC(=N)N)NC(=O)[C@H](CCCCN)NC(=O)[C@H]([C@@H](C)O)NC(=O)[C@H](Cc4ccc(O)cc4)NC(=O)[C@H](CO)NC1=O)NC(=O)[C@H](CC(=O)O)NC(=O)[C@H](CCCNC(=N)N)NC(=O)[C@H](CCSC)NC(=O)[C@H](CO)NC(=O)[C@@H]1C[C@@H](O)CN1C(=O)[C@H](CO)NC3=O)C(=O)N[C@@H]([C@@H](C)O)C(=O)N[C@@H]([C@@H](C)O)C(=O)N2 [MoVIA] (H-CKP[Hyp]GSKCS[Hyp]SMRDCCTTCISYTKRCRKYYN-OH; disulfide 1-16, 8-19, 15-26) | 80 ± 10 | inactive | inactive | – | – | –
